Key:
Format in all cases: cell-based, Human
[1] = test system: NRF2 gene; assay: NRF2 gene editing (indel/frameshift) analysis by NGS and CRISPResso2 in FaDu cells; conditions: for knocking out NRF2 (DNA sequence data): exon 4
Protocol: (§1) The NRF2 gene-coding sequence was entered into SnapGene and the following gRNAs were selected for targeting exon 2: (sg3) 5′-[…]-3′ (SEQ ID NO:75); as well as two gRNAs targeting Exon 4: (sg76) 5′-[…]-3′ (SEQ ID NO:16), (sg83) 5′-[…]-3′ (SEQ ID NO:24). Based on the gRNA design, synthetic single gRNAs were ordered from Synthego (Menlo Park, California, USA). CleanCap® Cas9 mRNA (5moU) was ordered from TriLink Biotechnologies (San Diego, CA, USA).
Either one million cells were seeded to a 75 cm^2 tissue culture flask or 2.5 million cells were seeded to a 175 cm^2 tissue culture flask 24 hours prior to transfection and allowed to reach 60-80% confluency. On the day of the transfection, cells were treated with Lipofectamine MessengerMAX reagent (Thermo Fisher Scientific, Waltham, MA) bearing 10 μg or 25 μg of Cas9mRNA and 10 μg or 25 μg of sgRNA, suspended in Opti-MEM, per the manufacturer's instructions. 39 μL or 97.5 μL of MessengerMax lipofectamine reagent was diluted in 1.5 mL or 3.75 mL OPTI-MEM medium and vortexed twice was incubated for ten minutes at room temperature, during which time the culture media was replaced with 15 mL or 25 mL of fresh media, as appropriate to the cell line. A total of 20 μg or 50 μg of RNA was then added to the diluted lipofectamine, consisting of 10 μg or 25 μg Cas9 mRNA and 10 μg or 25 μg sgRNA. The suspension was incubated at room temperature for an additional five minutes before being added, in full, to the tissue culture flask, which was then swirled gently to disperse the reagent. […]
(§2) Targeted amplicon libraries were prepared using Illumina's 16S metagenomic sequencing library preparation protocol for MiSeq. Genomic DNA was extracted from cells using the Qiagen's DNeasy Blood & Tissue kit (Quiagen, Hilden, Germany) or QuickExtract reagent (Biosearch Technologies). The region surrounding the CRISPR target site for Exon 2 (398 bp) and Exon 4 (402 bp) of the NRF2 gene were amplified using the 2× Phusion Flash PCR master mix (Thermo Fisher Scientific, Waltham, MA). Post amplification, samples were cleaned using AMPure beads and DNA concentration was measured using the Qubit assay (Thermo Fisher Scientific, Waltham, MA). Samples are also run on TapeStation (Agilent Technologies Santa Clara, CA) to verify the presence of the desired amplicon. The samples were indexed using either the IDT for Illumina DNA/RNA UD indexes set A (Illumina San Diego, CA). Samples were again quantified using Qubit and average library size was calculated using the Tapestation amplicon size. Once pooled to the loading concentration, the libraries were sequenced using the MiSeq Reagent kit v2 (Illumina, San Diego, CA). Only the data that passed data QC in Sequencing Analysis Viewer, was analyzed using CRISPResso2 (CRISPResso2 website) to understand gene editing efficiency and frameshift analysis.

[2] = test system: NRF2 gene; assay: NRF2 gene editing (indel/frameshift) analysis by NGS and CRISPResso2 in KYSE-410 cells; conditions: for gene editing activity (indel profiles): seventy-two hours post-transfection; for knocking out NRF2 (DNA sequence data): exon 4
Protocol: as §1
Either one million cells were seeded to a 75 cm^2 tissue culture flask or 2.5 million cells were seeded to a 175 cm^2 tissue culture flask 24 hours prior to transfection and allowed to reach 60-80% confluency. On the day of the transfection, cells were treated with Lipofectamine MessengerMAX reagent (Thermo Fisher Scientific, Waltham, MA) bearing 10 μg or 25 μg of Cas9mRNA and 10 μg or 25 μg of sgRNA, suspended in Opti-MEM, per the manufacturer's instructions. 39 μL or 97.5 μL of MessengerMax lipofectamine reagent was diluted in 1.5 mL or 3.75 mL OPTI-MEM medium and vortexed twice was incubated for ten minutes at room temperature, during which time the culture media was replaced with 15 mL or 25 mL of fresh media, as appropriate to the cell line. A total of 20 μg or 50 μg of RNA was then added to the diluted lipofectamine, consisting of 10 μg or 25 μg Cas9 mRNA and 10 μg or 25 μg sgRNA. The suspension was incubated at room temperature for an additional five minutes before being added, in full, to the tissue culture flask, which was then swirled gently to disperse the reagent. Treated cells were incubated for 72 hours at 37° C. prior to being assayed.
as §2

[3] = test system: NRF2 gene; assay: Exon skipping analysis of NRF2 cDNA in FaDu and KYSE-410 cells; conditions: 72 hours post-transfection, cDNA PCR 5′UTR to exon 5
Protocol: Total RNA was isolated from edited cells using TRIzol reagent and PureLink RNA Mini Kit (Thermo Fisher Scientific, Waltham, MA). Reverse transcription was conducted using the Applied Biosystems High-Capacity RNA-to-cDNA kit (Thermo Fisher Scientific, Waltham, MA). The cDNA was used as the template for PCR amplification with either Phusion Flash or Phusion High-Fidelity PCR master mix (Thermo Fisher Scientific, Waltham, MA) with primers spanning the 5′UTR region through Exon 5 (798 bp) of the NRF2 gene. PCR reactions were purified using Qiagen Qiaquick PCR cleanup columns (Quiagen, Hilden, Germany) according to manufacturer's protocol, measured on a Nanodrop and equally loaded on a 1% agarose gel.
The difference between targeting exon 2 and exon 4 was intriguing, so we wanted to see if a molecular rearrangement, exon skipping, which we had identified previously within the NRF2 gene was at least in part responsible for this difference^33. Since we know NRF2 exon 2 and exon 4 are disrupted by design, and intra-genic changes are the objective of the experiment, we asked if exon skipping could account for the differential response in targeting exon 2 versus exon 4. FIG. 14A represents the potential exon skipping outcomes. For both the FADU and the KYSE-410 cells, at 72 hours post-transfection RNA was converted to cDNA followed by PCR amplification of the NRF2 cDNA (798 bp) spanning the 5′UTR to exon 5. […] The 798 bp is the full transcript while the lower band for sg3 is 531 bp and sg76 is 606 bp, the expected sizes of the removal of exon 2 (267 bp) and exon 4 (192 bp).

[4] = 13 days (two weeks) after transfection

Row | Substance | editing ([1]; 72 hr) | editing [1, 4] | frameshift mutations (of the total indels) ([1]; exon 2, 72 hours) | total indel population ([1]; exon 2, 72 hours) | gene editing activity (indel profiles) [2] | exon skipping [3] | knocking out NRF2 (DNA sequence data) [1] | knocking out NRF2 (DNA sequence data) [2]
1 | sg3: gRNA targeting the DLG motif in exon 2 of NRF2; 5′-TATTTGACTTCAGTCAGCGA-3′ or TGGAGGCAAGATATAGATCT (further chemistry not given here) [reference compound] | 85.5% | 73.45% | exceeded 76% | exceeded 76% | 97% | second lower band indicative of an exon skipping event | – | –
2 | sg83: gRNA targeting exon 4 of NRF2; GTAGCCCCTGTTGATTTAGA CGG (guide GTAGCCCCTGTTGATTTAGACGG; listed as DNA, chemistry not given here) | 86% | 40.95% | – | – | 97% | some level of exon skipping activity is detected but at much lower rate | efficient in knocking out NRF2 at exon 4 | efficient in knocking out NRF2 at exon 4
3 | sg76: gRNA targeting exon 4 of NRF2; TCACTTGTTCCTGATATTCC CGG (guide TCACTTGTTCCTGATATTCCCGG; listed as DNA, chemistry not given here) | 87% | 49.30% | – | – | 97% | second lower band indicative of an exon skipping event | efficient in knocking out NRF2 at exon 4 | efficient in knocking out NRF2 at exon 4
